Experimental data from patent US20250129140A1, “ANTI-HCMV ANTIBODIES AND ANTIGEN-BINDING FRAGMENTS THEREOF” (ICAHN SCHOOL OF MEDICINE AT MOUNT SINAI, priority 2021, published 2025).

Tested on: CMV TB40/E infected fibroblasts
Experiment: SCID mouse gelfoam implant model of CMV proliferation
Format: in vivo, SCID mice
Details: fully human mAbs 4 or 18 mg/kg, ganciclovir 50 mg/kg; i.p. every three days; day ten; versus isotype control
Description: At day ten post-implantation, the cells were released from the gelfoam and DNA extracted from the cells was subjected to qPCR for the HCMV UL123 and β-actin genes. The relative CMV levels cells were determined from Ct values of qPCR analysis (in triplicate) from cells collected from three mice/treatment. Statistical tests were performed using ordinary one-way ANOVA with comparisons to isotype treated cells as a control and a Dunnett's post-test; **, p<0.01; ***, p<0.001; ****, p<0.0001.
The gelfoam was implanted subcutaneously in three mice per group. […] Treatments were administrated every three days for nine days. At day ten post-implant, the gelfoam was removed and cells were released from the gel foam by collagenase treatment. The total DNA was harvest from the cells, quantified, and subjected to qPCR for UL123 (CMV gene) and b-actin (housekeeping geen) using SYBR green to evaluate virus proliferation. The qPCR analysis was performed in triplicate from three animals to determine the Ct values for UL123 and b-actin to calculate the relative levels of CMV DNA from the gelfoam samples.

Nc1nc(O)c2ncn(COC(CO)CO)c2n1 [ganciclovir, reference compound]
CMV DNA levels (UL123 relative to β-actin, qPCR): effective at decreasing CMV DNA levels
